Among the data in ChEMBL document CHEMBL4364336, “Synthesis and exploration of 2-morpholino-4-phenylthiazol-5-yl acrylamide derivatives for their effects against carbonic anhydrase I, II, IX and XII isoforms as a non-sulfonamide class of inhibitors” (Bioorg Med Chem, 2019) are Ki values, retold here.

pKi: −log10 of the molar value.

Test [1] deals with Carbonic anhydrase 2 (Homo sapiens, UniProt P00918). The experiment in a line: Inhibition of recombinant human carbonic anhydrase2 preincubated for 10 mins followed by CO2 solution addition by phenol red dye based stopped flow CO2 hydration assay.
Test [2] deals with Carbonic anhydrase 12 (Homo sapiens, UniProt O43570). The experiment in a line: Inhibition of recombinant human carbonic anhydrase12 preincubated for 10 mins followed by CO2 solution addition by phenol red dye based stopped flow CO2 hydration assay.
Carbonic anhydrase 12, sequence (O43570 whole entry): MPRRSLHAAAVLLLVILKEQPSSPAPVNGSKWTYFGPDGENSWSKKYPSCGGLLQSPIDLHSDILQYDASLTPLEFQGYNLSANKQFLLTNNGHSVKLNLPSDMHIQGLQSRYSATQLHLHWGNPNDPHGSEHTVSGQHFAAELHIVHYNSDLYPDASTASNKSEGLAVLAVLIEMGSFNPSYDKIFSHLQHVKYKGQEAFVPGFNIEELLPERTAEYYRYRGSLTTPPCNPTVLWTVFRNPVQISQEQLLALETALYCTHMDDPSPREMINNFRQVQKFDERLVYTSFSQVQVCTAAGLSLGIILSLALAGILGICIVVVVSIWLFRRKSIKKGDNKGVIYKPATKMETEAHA
The target of test [3] is Carbonic anhydrase 1 (Homo sapiens, UniProt P00915). The experiment in a line: Inhibition of recombinant human carbonic anhydrase1 preincubated for 10 mins followed by CO2 solution addition by phenol red dye based stopped flow CO2 hydration assay.
Carbonic anhydrase 1, sequence (P00915 whole entry): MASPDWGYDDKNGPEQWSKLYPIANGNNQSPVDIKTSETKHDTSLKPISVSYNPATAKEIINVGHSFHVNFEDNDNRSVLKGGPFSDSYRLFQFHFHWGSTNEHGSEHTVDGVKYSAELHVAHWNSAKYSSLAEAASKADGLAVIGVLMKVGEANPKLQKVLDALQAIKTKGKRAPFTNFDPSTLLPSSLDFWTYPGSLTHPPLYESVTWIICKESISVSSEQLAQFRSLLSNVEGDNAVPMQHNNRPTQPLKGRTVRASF
The target of test [4] is Carbonic anhydrase 9 (Homo sapiens, UniProt Q16790). The experiment in a line: Inhibition of recombinant human carbonic anhydrase9 preincubated for 10 mins followed by CO2 solution addition by phenol red dye based stopped flow CO2 hydration assay.

What is called pKi is the Ki on a negative log10 scale, so that one unit is a factor of ten. For `COc1ccc(NC(=O)/C=C/c2sc(N3CCOCC3)nc2-c2ccc(Cl)cc2)cc1OC`, the pKi in test [1], in test [2], in test [3] and in test [4] was less than 4.00 each time.
For the molecule `COc1cc(NC(=O)/C=C/c2sc(N3CCOCC3)nc2-c2ccccc2)cc(OC)c1OC`, the pKi in test [1], in test [2], in test [3] and in test [4] was less than 4.00 in each case.
For the molecule `Nc1ccccc1NC(=O)/C=C/c1sc(N2CCOCC2)nc1-c1ccc(Cl)cc1`, the pKi in test [1], in test [2], in test [3] and in test [4] was less than 4.00 in each case.
Take `COc1ccc(-c2nc(N3CCOCC3)sc2/C=C/C(=O)Nc2ccc(OC)c(OC)c2)cc1`: the pKi in test [1], in test [2], in test [3] and in test [4] was less than 4.00 in each case.
Regarding `COc1ccc(NC(=O)/C=C/c2sc(N3CCOCC3)nc2-c2ccc([N+](=O)[O-])cc2)cc1OC`, the pKi in test [1], in test [2], in test [3] and in test [4] was less than 4.00 each time.
As to `COc1cc(NC(=O)/C=C/c2sc(N3CCOCC3)nc2-c2ccc(Cl)cc2)cc(OC)c1OC`, the pKi in test [1], in test [2], in test [3] and in test [4] was less than 4.00 each time.
On to `COc1ccc(NC(=O)/C=C/c2sc(N3CCOCC3)nc2-c2ccc(OC)cc2)cc1`, for which the pKi in test [1], in test [2], in test [3] and in test [4] was less than 4.00 throughout.
Consider `O=C(/C=C/c1sc(N2CCOCC2)nc1-c1ccccc1)Nc1ccc(Br)cc1`, for which the pKi in test [1], in test [2], in test [3] and in test [4] was less than 4.00 in each case.
With `COc1ccc(NC(=O)/C=C/c2sc(N3CCOCC3)nc2-c2ccc([N+](=O)[O-])cc2)cc1`, the pKi is 4.41 in test [1], 5.34 in test [2], less than 4.00 in test [3] and 4.26 in test [4].
On the same counts, the results for `COc1ccc(-c2nc(N3CCOCC3)sc2/C=C/C(=O)Nc2ccccc2N)cc1` are less than 4.00, less than 4.00, less than 4.00 and less than 4.00.
Taken in the same sequence, the figures for `COc1ccc(NC(=O)/C=C/c2sc(N3CCOCC3)nc2-c2ccccc2)cc1` were less than 4.00, less than 4.00, less than 4.00 and less than 4.00.
Taken in the same sequence, the figures for `COc1ccc(-c2nc(N3CCOCC3)sc2/C=C/C(=O)Nc2ccc(Br)cc2)cc1` were less than 4.00, less than 4.00, less than 4.00 and less than 4.00.
Consider `O=C(/C=C/c1sc(N2CCOCC2)nc1-c1ccc([N+](=O)[O-])cc1)Nc1ccc(Br)cc1`, for which the pKi was 5.03 in test [1], 5.06 in test [2], less than 4.00 in test [3] and 4.26 in test [4].
Taken in the same sequence, the figures for `Nc1ccccc1NC(=O)/C=C/c1sc(N2CCOCC2)nc1-c1ccc([N+](=O)[O-])cc1` were 4.11, less than 4.00, less than 4.00 and 4.01.
Taken in the same sequence, the figures for `COc1ccc(-c2nc(N3CCOCC3)sc2/C=C/C(=O)Nc2cc(OC)c(OC)c(OC)c2)cc1` were less than 4.00, less than 4.00, less than 4.00 and less than 4.00.
On the same counts, the results for `COc1ccc(NC(=O)/C=C/c2sc(N3CCOCC3)nc2-c2ccc(Cl)cc2)cc1` are 4.30, 5.12, less than 4.00 and 4.02.
As for `O=C(/C=C/c1sc(N2CCOCC2)nc1-c1ccc(Cl)cc1)Nc1ccc(Br)cc1`, the pKi in test [1] was 4.17; in test [2] it was less than 4.00; in test [3] it was less than 4.00; in test [4], 4.02.
In the case of `COc1ccc(NC(=O)/C=C/c2sc(N3CCOCC3)nc2-c2ccccc2)cc1OC`, the pKi in test [1], in test [2], in test [3] and in test [4] was less than 4.00 each time.
With `Nc1ccccc1NC(=O)/C=C/c1sc(N2CCOCC2)nc1-c1ccccc1`, the pKi in test [1], in test [2], in test [3] and in test [4] was less than 4.00 throughout.
